# Source: patent US10752900B2, “Oligonucleotides for modulating gene expression and uses thereof” (BIOGENERA S.P.A., priority 2012, dated 2020)
# Key:
# [1] = test system: Kelly cells; experiment: Cellular proliferation assay (ATP-Lite), Kelly cells; assay type: cell-based, human; settings: for Cell Prolif (%) 1 μM 72 h: PNA 1 μM; for Cell Prolif. (%) 5 μM 72 h: PNA 5 μM; for Cell Prolif. (%) 10 μM 72 h: PNA 10 μM; for Cell Prolif (%) 2,5 μM 72 h: PNA 2,5 μM; for Cell Prolif. (%): Table 1, treated vs untreated control cells; for Kelly % cell prol.: Table 6
# Summary of the method: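 Kelly cells seeded at 5×10^3/well in OPTI-MEM with 4% FBS and 2 mM L-glutamine, in triplicate. PNA oligonucleotides at 1, 2.5, 5 or 10 μM. Viability by ATP-Lite luminescence at 48, 72, 96 and 168 h, as ratio to untreated controls.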
# [2] = test system: Phoenix; experiment: Cellular proliferation, Phoenix fibroblastoid-type cells; assay type: cell-based; settings: Table 1; cells that do not express MYCN
# Protocol: Cell viability was assessed by means of an ATP-Lite assay (Luminescence ATP Detection Assay System, PerkinElmer) and is reported as the ratio between the average signal of the treated wells compared to the average value of the wells of untreated control cells. The cells were processed following the instructions provided with the kit.
# Moreover, the oligonucleotides having SEQ ID NO 1-23 were administered in lines of fibroblastoid-type cells (NIH-3T3 and Phoenix) and the results are shown in Table 1 (last two columns). […]
# [3] = test system: MYCN gene; experiment: QT-PCR, MYCN mRNA in SKNBE2c cells; assay type: cell-based, human; settings: Table 6
# Protocol: For the purpose of assessing the ability of the oligonucleotides of the present invention to modulate the expression of the target genes, their ability to reduce the quantity of messenger RNA was analyzed using the Real-Time PCR technique. For this purpose, use was made of 24-well plates, which were seeded with 5.0×10^4 cells with 0.3 ml of OPTI-MEM (GIBCO BRL) medium, 4% FBS and 2 mM L-glutammine (experiments in triplicate) per well. The cells were incubated for 24 hours at 37° C., in an atmosphere containing 5% CO2 to permit adherence to the base of the wells. For each well, the oligonucleotides were analyzed at the following final concentrations: • the antisense oligonucleotides siRNA and siRNA gapmer (i.e. the oligonucleotides containing one or more monomers of chemically modified nucleic acids at the 3' or 5' end, while in the central portion they have monomers of nucleic acids that have not been modified or have been modified at the level of the phosphodiester bond as a phosphorothioate bond) were used at 200 nM; • the antisense oligonucleotides containing phosphorothioate DNA monomers, the RNA antigene oligonucleotides (agRNA) and the oligonucleotides containing DNA monomers and LNA monomers were used at 10 μM; • the morpholino oligonucleotides were used at a concentration of 1 μM, and • the PNA oligonucleotides were administered at a concentration of 1 μM. The cells were treated with the oligonucleotides, adding FBS up to 4% 6 hours after administration of the same. After 24 hours the total RNA was extracted from each well and purified using the RNeasy Mini Kit (QIAGEN). Assays were performed on 8 cell lines obtained from 5 different human tumours which are correlated with MYCN expression, i.e.: • as a neuroblastoma model use was made of the cell lines Kelly, IMR-32 (where the MYCN gene is amplified and superexpressed) and SKNBE2c and LAN1 (where the MYCN gene is amplified and superexpressed and the p53 gene is mutated); • as a rabdomiosarcoma model use was made of the cell line RH30, where the MYCN gene is amplified and superexpressed; • as a Wilms' tumour model use was made of the cell line WiT49, where the MYCN gene is amplified and superexpressed; • as a retinoblastoma model use was made of the cell line Y79, where the MYCN gene is amplified and superexpressed; and • as a model of small cell lung cancer use was made of the cell line H69 where the MYCN gene is amplified and superexpressed. As a control, use was made of the same cell lines as listed above treated with sterile water instead of oligonucleotides. Each RNA sample was quantified (in duplicate) using a NanoDrop ND-1000 spectrophotometer (NanoDrop Technologies). The first strand of cDNA was produced using the cDNA Synthesis Kit for RT-PCR (Roche). For the cDNA synthesis reaction a total of 1 μg of RNA was used. For the real-time PCR, 10 ng of cDNA in a final volume of 20 μl was used with SYBR Green Master Mix 2× (Applied Biosystems) (3 identical experiments were conducted in triplicate). Two housekeeping genes were used as positive controls: GAPDH and beta-actin (ACTB). The conditions of the QT-PCR reaction were: 10 min at 95° C., 20 sec at 95° C., and 30 sec at 60° C., for 50 cycles. The PNAs having SEQ ID NO: 1-12 were also tested on different cell lines which overexpress MYCN (Kelly, SKNBE2c, RH30, […] 1 and H69). The results are shown in Table 6 and confirm the selectivity and specificity of the inhibition effect of the PNAs on the product of protein translation of the MYCN gene.
# [4] = test system: SKNBE2c; experiment: Cellular proliferation assay (ATP-Lite), SKNBE2c cells; assay type: cell-based, human; settings: Table 6
# Protocol: For the purpose of assessing the gene modulation ability of the oligonucleotides of the present invention, the effect of their administration on cell viability was determined. For this purpose 5×10^3 cells per well were seeded into 96-well cell culture plates (experiments conducted in triplicate) with 100 μl of OPTI-MEM (GIBCO BRL) medium containing 4% FBS and 2 mM of L-glutammine. The PNA oligonucleotides were administered at different concentrations (1 μM-2.5 μM-5 μM-10 μM) in order to observe a dose-effect relationship. The viability of the treated cells was determined at 48, 72, 96 and 168 hours after treatment. Cell viability was assessed by means of an ATP-Lite assay (Luminescence ATP Detection Assay System, PerkinElmer) and is reported as the ratio between the average signal of the treated wells compared to the average value of the wells of untreated control cells. The cells were processed following the instructions provided with the kit. The assays were performed on the same cell lines used to determine the levels of the MYCN gene messenger and listed in the paragraph: Treatments with Oligonucleotides-QT-PCR. The PNAs having SEQ ID NO: 1-12 were also tested on different cell lines which overexpress MYCN (Kelly, SKNBE2c, RH30, […] 1 and H69). The results are shown in Table 6 and confirm the selectivity and specificity of the inhibition effect of the PNAs on the product of protein translation of the MYCN gene.
Substance,Cell Prolif (%) 1 μM 72 h [1],Cell Prolif. (%) 5 μM 72 h [1],Cell Prolif. (%) 10 μM 72 h [1],"Cell Prolif (%) 2,5 μM 72 h [1]",Cell Prolif. (%) [1],Kelly % cell prol. [1],Phoenix prolif. (%) [2],SKNBE2c % mRNA [3],SKNBE2c % cell prol. [4],"(Kelly) Cell Prolif. % ([1]; Table 7, SEQ ID NO: 5 and guanine-group mutants)"
"SEQ ID NO: 1: PNA ATGCCGGGCATGATCT against MYCN; subject of patent EP 1618195, control sequence used for comparison (all peptide nucleic acid (PNA)) [reference compound]",89%,50%,24%,66%,70%,66%,100%,41%,72%,–
"SEQ ID NO: 2: PNA antigene oligonucleotide GGGTGGATGCGGGGGG directed against MYCN (PNA backbone, chemistry not fully specified)",74%,12%,2%,32%,32%,32%,100%,75%,52%,–
"SEQ ID NO: 3: PNA antigene oligonucleotide GATGCGGGGGGCTCCT directed against MYCN (PNA backbone, chemistry not fully specified)",78%,19%,3%,41%,41%,41%,100%,68%,53%,–
"SEQ ID NO: 4: PNA antigene oligonucleotide GTCGGCGGGAGGTAAG directed against MYCN (PNA backbone, chemistry not fully specified)",78%,21%,3%,48%,48%,48%,100%,60%,59%,–
"SEQ ID NO: 5: PNA antigene oligonucleotide GCTGGGTGGATGCGGG directed against MYCN (PNA backbone, chemistry not fully specified)",79%,27%,5%,53%,53%,53%,100%,59%,64%,53%
"SEQ ID NO: 6: PNA antigene oligonucleotide TGGACGCGCTGGGTGG directed against MYCN (PNA backbone, chemistry not fully specified)",82%,35%,13%,59%,54%,54%,100%,62%,57%,–
SEQ ID NO: 7: PNA antigene oligonucleotide CGCGCTGGGTGGATGC directed against MYCN (all peptide nucleic acid (PNA)),80%,31%,8%,54%,57%,57%,100%,60%,58%,–
SEQ ID NO: 8: PNA antigene oligonucleotide GTCTGGACGCGCTGGG directed against MYCN (all peptide nucleic acid (PNA)),80%,32%,11%,57%,59%,59%,100%,62%,56%,–
SEQ ID NO: 9: PNA antigene oligonucleotide CCCTGCAGTCGGCGGG directed against MYCN (all peptide nucleic acid (PNA)),86%,42%,20%,64%,64%,60%,100%,58%,64%,–
"SEQ ID NO: 10: PNA antigene oligonucleotide CGGCCGCGGGCCGCCA directed against MYCN (PNA backbone, chemistry not fully specified)",–,–,–,–,65%,64%,100%,41%,70%,–
"SEQ ID NO: 11: PNA antigene oligonucleotide GGGAACTGTGTTGGAG directed against MYCN (PNA backbone, chemistry not fully specified)",–,–,–,–,68%,64%,100%,40%,71%,–
SEQ ID NO: 12: PNA antigene oligonucleotide TGTCTGGACGCGCTGG directed against MYCN (all peptide nucleic acid (PNA)),84%,40%,16%,60%,69%,65%,100%,40%,71%,–
